Entries after “also recorded” stand apart in the source; their conditions may differ. In the oligonucleotide strings, read from the 5' end, every base follows the letter of its sugar. An asterisk marks phosphorothioate; unmarked linkages are phosphodiester. Other units and linkages are bracketed, terminal groups are in braces. A string of capitals states the bases alone. d = 2'-deoxy (DNA)

Data set [1] has as its system flax calli. As to the kind of experiment: Glyphosate tolerance of flax calli (fresh weight). As to conditions: edited callus line Y23 / A23, all glyphosate concentrations tested, p<0.01. The class given is cell-based, Linum usitatissimum. As for the experimental part:
(§1) Glyphosate tolerance of calli and regenerated plants was assessed in vitro and in the greenhouse, respectively. Individual calli were cloned by cutting and culturing smaller pieces in fresh regeneration medium to increase callus mass. Calli derived from wild type leaf protoplasts were used as negative control. Calli derived from subcultures of individual callus lines were then pooled and broken up into 0.5-1 mm pieces by blending in liquid MS medium (4.33 g/L MS salts, 3% sucrose and 0.1% Morel and Wetmore vitamins) and 0.25 ml of settled callus pieces was inoculated on regeneration medium containing 0, 0.125, 0.25, 0.5, 1.0 or 2.0 mM glyphosate. Treatments were performed in triplicate, and the experiments were repeated three times. Prior to spray tests, regenerated plants were subjected to a hardening period in a growth chamber (Conviron, Winnipeg, MB) under a 16-h photoperiod with day and night temperatures 21° C. and 18° C. respectively. Hardened plants were transferred to the greenhouse for glyphosate treatment. Wild type control and EPSPS edited plants were sprayed with 10.5 mM or 21.0 mM glyphosate (Roundup Pro, Monsanto). Treatment rates were normalized to a 75.7 ai/A (active ingredient per acre) spray volume to replicate field conditions. […] Plants were evaluated and photographed 6 days after the glyphosate treatment to determine herbicide tolerance. […]

For data set [2], the system named is flax plants. Nature of the data set: Glyphosate spray test of regenerated flax plants in the greenhouse. Type of data set: in vivo, Linum usitatissimum. As to conditions: 10.5 or 21.0 mM spray, 6 days after treatment. As for the experimental part: as §1
Data set [3] deals with blue fluorescent protein (BFP) gene. Nature of the data set: BFP to GFP conversion by GRON, with or without zeocin/phleomycin, in BFP transgenic protoplasts (flow cytometry). The class given is cell-based, Arabidopsis thaliana.
Data set [4] shares this test system. The data set is described as above. Type of data set: cell-based, Arabidopsis thaliana. The settings on record: 250 and 1000 μg/ml, 90 min before GRON. The text has this: Sommer et al., (Mol Biotechnol. 33:115-22, 2006) describes a reporter system for the detection of in vivo gene conversion that relies upon a single nucleotide change to convert between blue and green fluorescence in green fluorescent protein (GFP) variants. This reporter system was adapted for use in the following experiments using Arabidopsis thaliana as a model species in order to assess efficiency of GRON mediated conversion.
In short, for this and the subsequent examples an Arabidopsis thaliana line with multiple copies of a blue fluorescent protein gene was created by methods known to those skilled in the art (see, e.g., Clough and Brent, 1998). […]
The purpose of this series of experiments is to compare the conversion efficiencies of the phosphothioate (PS) labeled GRONs with 3PS moieties at each end of the GRON to 2′-O-Me or “2OMe” in the presence and absence of a member of the bleomycin family, Zeocin™ to induce DNA breaks. […] GRONs were delivered into Arabidopsis thaliana BFP protoplasts by PEG treatment and BFP to GFP conversion was determined at 24 h post treatment by cytometry. […]
Seventy-two h after transfection, cells were analyzed by cytometry using the Attune® Acoustic Focusing cytometer (Applied Biosystems®) with excitation and detection of emission as appropriate for GFP. […]

In data set [5] the test system is bfp gene. As to the kind of experiment: BFP to GFP conversion by CRISPR plasmid plus GRON in BFP transgenic protoplasts (flow cytometry). Type of data set: cell-based, Arabidopsis thaliana. As to conditions: 72 h. As for the experimental part: BFP transgenic Arabidopsis thaliana protoplasts derived from induced root tissue were seeded on a flat-bottom 96-well plate, at 250,000 cells per well at a cell density of 1×10^7 cells/ml. The CRISPR encoded plasmids contain the mannopine synthase (MAS) promoter driving the Cas9 coding sequence with an rbcSE9 terminator and the Arabidopsis U6 promoter driving the sgRNA with a poly-T10 terminator. The CRISPR plasmids along with GRON were introduced into protoplasts by PEG mediated delivery at a final concentration of 0.05 μg/μl and 0.16 μM respectively. Protoplasts were incubated in the dark at 23° C. for 72 hours, and then they were analyzed by flow cytometer in order to determine the percentage of GFP positive protoplasts within a given treatment.
The CRISPR consists of two components: the plant codon-optimized Streptococcus pyogenes Cas9 (SpCas9) and sgRNA both of which were expressed from the same plasmid. The sgRNA is a fusion of CRISPR RNA (crRNA) and trans-activating crRNA (tracrRNA). The crRNA region contains the spacer sequence used to guide the Cas9 nuclease to the BFP target gene (FIG. 3). 201-mer GRONs targeting BFP with or without wobble bases were used to determine their effect on the rate of BFP to GFP conversion.
BFP transgenic Arabidopsis thaliana protoplasts derived from induced root tissue were seeded on a flat-bottom 96-well plate, at 250,000 cells per well at a cell density of 1×10^7 cells/ml. […] Protoplasts were incubated in the dark at 23° C. for 72 hours, and then they were analyzed by flow cytometer in order to determine the percentage of GFP positive protoplasts within a given treatment. […]
BFP transgenic Arabidopsis thaliana protoplasts derived from induced root tissue were seeded on a flat-bottom 96-well plate, at 250,000 cells per well at a cell density of 1×10^7 cells/ml. […] Protoplasts were incubated in the dark at 23° C. for 72 hours, and then they were analyzed by flow cytometry in order to determine the percentage of GFP positive protoplasts within a given treatment. […]
For orientation: Flow cytometry measures light scatter and fluorescence of single cells or particles in a stream.

Data set [6] has as its system accase gene. As to the kind of experiment: ACCase conversion in rice protoplasts (NGS). Type of data set: cell-based, Oryza sativa.

Take `O=C(O)CNCP(=O)(O)O` [glyphosate]: the “fresh weight of calli with T97I and P101A edits versus wild type calli” value in data set [1] is given as “significantly higher”. In addition, the “phenotype of wild type plants” value in data set [2] was “wilted and necrotic phenotype typical of glyphosate toxicity”. For the same molecule, the “phenotype of plants with the edited EPSPS gene” value in data set [2] (Y23 / A23 plants) was “minimal phenotypic change”.

In the case of `Cc1c(N)nc([C@H](CC(N)=O)NC[C@H](N)C(N)=O)nc1C(=O)N[C@H](C(=O)N[C@H](C)[C@@H](O)[C@H](C)C(=O)N[C@H](C(=O)NCCC1=N[C@@H](c2nc(C(=O)NCCCCN=C(N)N)cs2)CS1)[C@@H](C)O)[C@@H](O[C@@H]1O[C@@H](CO)[C@@H](O)[C@H](O)[C@@H]1O[C@H]1O[C@H](CO)[C@@H](O)[C@H](OC(N)=O)[C@@H]1O)c1cnc[nH]1` [zeocin], in data set [3] (zeocin 1 mg/ml, 90 min on ice prior to PEG treatment with GRON), the “effect of zeocin on BFP to GFP conversion” value is reported as “increased BFP to GFP conversion rates”. In addition, in data set [4], the “effect of antibiotic pre-treatment on BFP to GFP gene editing” value was “increase in BFP to GFP gene editing”.

For “BFP/41/3PS: BFP GRON with three adjacent PS modifications at each end (sense dG*dC*dT*dGdAdAdGdCdAdCdTdGdCdAdCdGdCdCdGdTdAdGdGdTdAdAdAdCdGdTdGdGdTdCdAdCdGdAdGdGdGdT*dG*dG*dG)”, the “BFP to GFP conversion / editing, comparison in words” value (shortened to “BFP to GFP conversion / editing”) in data set [5] was “more BFP to GFP precise scarless edits”.

As to “CG2: BFP antisense 41 nb 3PS modified (antisense dG*dC*dT*dGdAdAdGdCdAdCdTdGdCdAdCdGdCdCdGdTdAdGdGdTdGdAdAdGdGdTdGdGdTdCdAdCdGdA*dG*dG*dG)”, the “BFP to GFP conversion / editing” value in data set [5] is listed as “more efficacious”.

As to “CG3: BFP sense 41 nb 3PS modified (sense CGCTCGTGACCACCTTCACCTACGGCGTGCAGTGCTTCAGC; linkages s3 o34 s3 (s phosphorothioate, o phosphodiester), sugars by position and methylation of C not given here)”, the “BFP to GFP conversion / editing” value in data set [5] is given as “no statistical difference”.

Take phleomycin [reference compound]: in data set [3] (phleomycin 10 μg/mL, GRON BFP/41, 24 h), the “number of GFP positive cells compared to the BFP/41/NT control” value is recorded as “no improvement”. Moreover, in data set [3] (phleomycin 1000 μg/mL pre-treatment 90 min, GRON BFP/41, 24 h), the “BFP to GFP conversion frequency” value was found to be 0.14%. Moreover, the “effect of antibiotic pre-treatment on BFP to GFP gene editing” value in data set [4] is “increase in BFP to GFP gene editing; also recorded: dose-dependent increase in GFP positive cells”.

B1: GRON (SEQ ID NO: 79): Cy3/idC GRON targeting the rice accase gene, Example 21 (nucleic acid)
chain: CTGACCTGAACTTGATCTCAATTAACCCTTGCGGTTCCAGAACATTGCCTTTTGCAGTCCTCTCAGCATAGCACTCAATGCGGTCTGGGTTTATCTTGCTTCCAACGACAACCCAAGCCCCTCCTCGTAGCTCTGCAGCCATGGGAATGTAGACAAAGGCAGGCTGATTGTATGTCCTAAGGTTCTCAACAATAGTCGAGCC
modifications: Cy3 label and idC cap; 5′ CY3/ 3′ 3′DMT dC CPG
As for B1, the ACCase conversion amounted to 0.026% in data set [6] (CRISPR-Cas plasmid plus GRON, 120 h) and 0.002% in data set [6] (GRON only, no CRISPR-Cas, 120 hours).

The values above are taken from US11542515B2, “Methods and compositions for increasing efficiency of targeted gene modification using oligonucleotide-mediated gene repair” (CIBUS US LLC, priority 2016, dated 2023).
